Results from US10227331B2 (priority 2015, dated 2019).

Tests used:
[1] = tested on: P. aeruginosa expressing IMP-1, efflux− (MB9799); assay: Efflux: concentration of MBL inhibitor which restores susceptibility to imipenem; format: cell-based, Pseudomonas aeruginosa; settings: imipenem at 2 μg/mL, in the presence of a class A, C, D serine β-lactamase inhibitor closely related to relebactam
Description: (§1) The strain background is Pseudomonas aeruginosa PAO1.

[2] = molecular target: VIM-1 (Pseudomonas aeruginosa (strain ATCC 15692 / DSM 22644 / CIP 104116 / JCM 14847 / LMG 12228 / 1C / PRS 101 / PAO1), UniProt A0A0F7KYQ8); assay: biochemical; settings: CCF2-FA substrate, 2 hours at 25° C
How it was run: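 Fluorescence assay, CCF2-FA substrate (cephalosporin core linking 7-hydroxycoumarin to fluorescein); inhibitor + MBL + substrate, 2 h, 25° C. IC50 by 4-parameter fit, semi-log plot.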

[3] = molecular target: NDM-1 (Klebsiella pneumoniae, UniProt C7C422); assay: biochemical; format: biochemical; settings: CCF2-FA substrate, 2 hours at 25° C; read-out: NDM-1 IC50
Method: (§2) Enzyme Activity: Determination of IC50
(§3) The Class B enzyme activities were measured in the presence of the test inhibitor in a fluorescence assay against a commercially available substrate consisting of a cephalosporin core linking 7-hydroxycoumarin to fluorescein (CCF2-FA). […] In a 384-well microplate, the test inhibitor was incubated with the metallo-β-lactamase enzyme and the substrate for 2 hours at 25° C. […] The IC50 value was determined from semi-logarithmic plots of enzyme inhibition versus inhibitor concentration, with a curve generated using a 4-parameter fit.

[4] = molecular target: IMP-1 (Serratia marcescens, UniProt P52699); assay: biochemical; format: biochemical; settings: CCF2-FA substrate, 2 hours at 25° C; read-out: IMP-1 IC50
Method: as §2, §3

[5] = tested on: P. aeruginosa expressing IMP-1, efflux+ (MB9798); format: cell-based, Pseudomonas aeruginosa; settings: for P. aeruginosa expressing IMP-1, efflux+ (MB9798) MITC95: imipenem at 2 μg/mL, in the presence of a class A, C, D serine β-lactamase inhibitor closely related to relebactam; for Efflux ratio: ratio MITC95 PA_9798/MITC95 PA_9799
Description: as §1

[6] = tested on: Serratia marcescens expressing IMP-1 (CL5741); format: cell-based; settings: with imipenem 1 μg/ml, 95% inhibition of bacterial growth; for Serratia marcescens MITC95: IMP-1 (CL5741)
How it was run: (§4)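 Colonies from overnight 35 °C blood-agar cultures were suspended in saline, diluted 1:100 into 1.1× CAMHB and exposed to test compound with or without imipenem at 1 μg/ml. After 22–24 h at 35 °C, absorbance was read to find the concentration restoring imipenem susceptibility.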

[7] = tested on: Escherichia coli expressing NDM-1 (CLB30005, CLB30016); format: cell-based; settings: with imipenem 1 μg/ml, 95% inhibition of bacterial growth; for Escherichia coli MITC95: NDM-1 (CLB30016)
How it was run: as §4

[8] = tested on: Klebsiella pneumoniae expressing VIM-1 (IHMA599644); format: cell-based; settings: with imipenem 1 μg/ml, 95% inhibition of bacterial growth; for Klebsiella pneumoniae MITC95: VIM-1 (IHMA599644)
How it was run: as §4

Sequence of IMP-1 (P52699 whole entry, looked up, species assumed): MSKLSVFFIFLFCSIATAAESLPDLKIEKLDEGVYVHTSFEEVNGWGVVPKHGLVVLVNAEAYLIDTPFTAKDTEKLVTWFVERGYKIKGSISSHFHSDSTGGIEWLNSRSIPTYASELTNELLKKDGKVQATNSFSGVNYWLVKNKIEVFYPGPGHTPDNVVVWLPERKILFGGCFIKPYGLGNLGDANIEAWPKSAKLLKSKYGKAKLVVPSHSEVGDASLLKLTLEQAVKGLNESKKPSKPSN
Sequence of NDM-1 (C7C422 whole entry, looked up, species assumed): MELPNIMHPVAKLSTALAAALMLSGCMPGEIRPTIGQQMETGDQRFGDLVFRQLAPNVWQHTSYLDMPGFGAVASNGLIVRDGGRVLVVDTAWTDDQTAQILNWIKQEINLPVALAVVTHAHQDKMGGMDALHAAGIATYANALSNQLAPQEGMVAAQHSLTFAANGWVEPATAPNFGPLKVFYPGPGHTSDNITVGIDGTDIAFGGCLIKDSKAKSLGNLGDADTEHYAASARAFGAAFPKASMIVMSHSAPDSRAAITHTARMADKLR

In the case of `NS(=O)(=O)c1c(S(=O)(=O)C2CNC2)ccc(-c2ccc3scnc3c2)c1-c1nnn[nH]1.O=C(O)C(F)(F)F` [Example 114, 3-((4-(benzo[d]thiazol-5-yl)-2-sulfamoyl-3-(1H-tetrazol-5-yl)phenyl)sulfonyl)azetidin-1-ium 2,2,2-trifluoroacetate], the “P. aeruginosa expressing IMP-1, efflux− (MB9799) MITC95” value [1] is reported as 0.7813 µM, the IC50 [2] is reported as 0.116 nM and the IC50 [3] is reported as 0.15 nM. For the same molecule, the IC50 [4] was 0.261 nM, the “P. aeruginosa expressing IMP-1, efflux+ (MB9798) MITC95” value [5] was 6.25 µM and the Efflux ratio [5] was 8.00. For the same molecule, the “Serratia marcescens expressing IMP-1 (CL5741) MITC95” value [6] was 0.7813 µM, the “Escherichia coli expressing NDM-1 (CLB30016) MITC95” value [7] was 0.3906 µM and the “Klebsiella pneumoniae expressing VIM-1 (IHMA599644) MITC95” value [8] was 1.563 µM.

In the case of `CCn1c(N)nc2c(-c3ccc(S(=O)(=O)CCN)c(S(N)(=O)=O)c3-c3nn[nH]n3)cccc21` [Example 284, 3-(2-amino-1-ethyl-1H-benzo[d]imidazol-4-yl)-6-(2-aminoethylsulfonyl)-2-(2H-tetrazol-5-yl)benzenesulfonamide], the “P. aeruginosa expressing IMP-1, efflux− (MB9799) MITC95” value [1] is reported as 0.7813 µM, the IC50 [2] is reported as 0.507 nM and the IC50 [3] is reported as 0.289 nM. The IC50 [4] was 0.327 nM, the “P. aeruginosa expressing IMP-1, efflux+ (MB9798) MITC95” value [5] was 3.125 µM and the Efflux ratio [5] was 4.00. The “Serratia marcescens MITC95” value [6] was 1.563 µM, the “Escherichia coli MITC95” value [7] was 0.3906 µM and the “Klebsiella pneumoniae MITC95” value [8] was 1.563 µM.

For `C[C@H](CN)S(=O)(=O)c1ccc(-c2cccc3nc(N)[nH]c23)c(-c2nn[nH]n2)c1S(N)(=O)=O` [Example 277, 3-(2-amino-3H-benzo[d]imidazol-4-yl)-6-((R)-1-aminopropan-2-ylsulfonyl)-2-(2H-tetrazol-5-yl)benzenesulfonamide], the “P. aeruginosa expressing IMP-1, efflux− (MB9799) MITC95” value [1] was 0.7813 µM, the IC50 [2] was 0.362 nM and the IC50 [3] was 0.527 nM. For the same molecule, the IC50 [4] was 1.37 nM, the “P. aeruginosa expressing IMP-1, efflux+ (MB9798) MITC95” value [5] was 1.563 µM and the Efflux ratio [5] was 2.00. For the same molecule, the “Serratia marcescens MITC95” value [6] was 0.7813 µM, the “Escherichia coli MITC95” value [7] was 0.3906 µM and the “Klebsiella pneumoniae MITC95” value [8] was 1.563 µM.

For `CS(=O)(=O)c1ccc(-c2cccc3nc(N)[nH]c23)c(-c2nn[nH]n2)c1S(N)(=O)=O` [Example 240, 3-(2-Amino-1H-benzo[d]imidazol-7-yl)-6-(methylsulfonyl)-2-(2H-tetrazol-5-yl) benzenesulfonamide], the “P. aeruginosa expressing IMP-1, efflux− (MB9799) MITC95” value [1] was 12.5 µM, the IC50 [2] was 2.6 nM and the IC50 [3] was 4.77 nM. The IC50 [4] was 7.46 nM, the “P. aeruginosa expressing IMP-1, efflux+ (MB9798) MITC95” value [5] was 50 µM and the Efflux ratio [5] was 4.00. The “Serratia marcescens expressing IMP-1 (CL5741) MITC95” value [6] was 12.5 µM, the “Escherichia coli expressing NDM-1 (CLB30016) MITC95” value [7] was 3.125 µM and the “Klebsiella pneumoniae expressing VIM-1 (IHMA599644) MITC95” value [8] was 25 µM.

With `NS(=O)(=O)c1c(S(=O)(=O)C2CNC2)ccc(-c2ccc3nccnc3c2)c1-c1nnn[nH]1.O=C(O)C(F)(F)F` [Example 117, 3-((4-(quinoxalin-6-yl)-2-sulfamoyl-3-(1H-tetrazol-5-yl)phenyl)sulfonyl)azetidin-1-ium 2,2,2-trifluoroacetate] the “P. aeruginosa expressing IMP-1, efflux− (MB9799) MITC95” value [1] was 1.563 µM, the IC50 [2] was 0.431 nM and the IC50 [3] was 0.93 nM. The IC50 [4] was 1.41 nM, the “P. aeruginosa expressing IMP-1, efflux+ (MB9798) MITC95” value [5] was 25 µM and the Efflux ratio [5] was 15.99. The “Serratia marcescens expressing IMP-1 (CL5741) MITC95” value [6] was 3.125 µM, the “Escherichia coli expressing NDM-1 (CLB30016) MITC95” value [7] was 6.25 µM and the “Klebsiella pneumoniae expressing VIM-1 (IHMA599644) MITC95” value [8] was 6.25 µM.

For `Nc1nc2c(-c3ccc(S(=O)(=O)C[C@@H](N)CO)c(S(N)(=O)=O)c3-c3nn[nH]n3)cccc2[nH]1` [Example 274, 3-(2-amino-1H-benzo[d]imidazol-4-yl)-6-((S)-2-amino-3-hydroxypropylsulfonyl)-2-(2H-tetrazol-5-yl)benzenesulfonamide], the “P. aeruginosa expressing IMP-1, efflux− (MB9799) MITC95” value [1] was 0.7813 µM, the IC50 [2] was 0.206 nM and the IC50 [3] was 0.113 nM. The IC50 [4] was 0.431 nM, the “P. aeruginosa expressing IMP-1, efflux+ (MB9798) MITC95” value [5] was 0.7813 µM and the Efflux ratio [5] was 1.00. The “Serratia marcescens MITC95” value [6] was 1.563 µM, the “Escherichia coli MITC95” value [7] was 0.7813 µM and the “Klebsiella pneumoniae MITC95” value [8] was 1.563 µM.

For `Nc1nc2ccc(-c3ccc([S+]([O-])C4CCNCC4)c(S(N)(=O)=O)c3-c3nn[nH]n3)cc2[nH]1` (stereo not drawn) [Example 12, 3-(2-amino-3H-benzo[d]imidazol-5-yl)-6-(piperidin-4-ylsulfinyl)-2-(2H-tetrazol-5-yl)benzenesulfonamide], the “P. aeruginosa expressing IMP-1, efflux− (MB9799) MITC95” value [1] was 3.125 µM, the IC50 [2] was 4.36 nM and the IC50 [3] was 4.06 nM. For the same molecule, the IC50 [4] was 130 nM, the “P. aeruginosa expressing IMP-1, efflux+ (MB9798) MITC95” value [5] was 25 µM and the Efflux ratio [5] was 8.00. For the same molecule, the “Serratia marcescens expressing IMP-1 (CL5741) MITC95” value [6] was 6.25 µM, the “Escherichia coli expressing NDM-1 (CLB30016) MITC95” value [7] was 6.25 µM and the “Klebsiella pneumoniae expressing VIM-1 (IHMA599644) MITC95” value [8] was 6.25 µM.

With `NCCS(=O)(=O)c1ccc(-c2cccc3[nH]cnc23)c(-c2nn[nH]n2)c1S(N)(=O)=O` [Example 198, 6-((2-aminoethyl)sulfonyl)-3-(1H-benzo[d]imidazol-4-yl)-2-(2H-tetrazol-5-yl)benzenesulfonamide] the “P. aeruginosa expressing IMP-1, efflux− (MB9799) MITC95” value [1] was 0.7813 µM, the IC50 [2] was 0.206 nM and the IC50 [3] was 0.238 nM. The IC50 [4] was 0.374 nM, the “P. aeruginosa expressing IMP-1, efflux+ (MB9798) MITC95” value [5] was 0.7813 µM and the Efflux ratio [5] was 1.00. For the same molecule, the “Serratia marcescens expressing IMP-1 (CL5741) MITC95” value [6] was 1.563 µM, the “Escherichia coli expressing NDM-1 (CLB30016) MITC95” value [7] was 0.7813 µM and the “Klebsiella pneumoniae expressing VIM-1 (IHMA599644) MITC95” value [8] was 1.563 µM.

In the case of `CS(=O)(=O)c1ccc([C@H]2CC[C@@H](N)CC2)c(-c2nnn[nH]2)c1S(N)(=O)=O` [Example 209, 3-((1s,4s)-4-aminocyclohexyl)-6-(methylsulfonyl)-2-(1H-tetrazol-5-yl) benzenesulfonamide], the “P. aeruginosa expressing IMP-1, efflux− (MB9799) MITC95” value [1] is reported as 3.125 µM, the IC50 [2] is reported as 52.1 nM and the IC50 [3] is reported as 16.4 nM. The IC50 [4] was 65.3 nM, the “P. aeruginosa expressing IMP-1, efflux+ (MB9798) MITC95” value [5] was 50 µM and the Efflux ratio [5] was 16.00. The “Serratia marcescens expressing IMP-1 (CL5741) MITC95” value [6] was 6.25 µM, the “Escherichia coli expressing NDM-1 (CLB30016) MITC95” value [7] was 3.125 µM and the “Klebsiella pneumoniae expressing VIM-1 (IHMA599644) MITC95” value [8] was 25 µM.

In the case of `Nc1nc2cccc(-c3ccc(S(=O)(=O)[C@H]4C[C@@H](N)C4)c(S(N)(=O)=O)c3-c3nn[nH]n3)c2[nH]1` [Example 176, 3-(2-amino-3H-benzo[d]imidazol-4-yl)-6-((1s, 3s)-3-aminocyclobutylsulfonyl)-2-(2H-tetrazol-5-yl)benzenesulfonamide], the “P. aeruginosa expressing IMP-1, efflux− (MB9799) MITC95” value [1] is reported as 0.7813 µM, the IC50 [2] is reported as 0.831 nM and the IC50 [3] is reported as 0.25 nM. The IC50 [4] was 1.09 nM, the “P. aeruginosa expressing IMP-1, efflux+ (MB9798) MITC95” value [5] was 0.7813 µM and the Efflux ratio [5] was 1.00. The “Serratia marcescens expressing IMP-1 (CL5741) MITC95” value [6] was 0.7813 µM, the “Escherichia coli expressing NDM-1 (CLB30016) MITC95” value [7] was 0.7813 µM and the “Klebsiella pneumoniae expressing VIM-1 (IHMA599644) MITC95” value [8] was 1.563 µM.
